Laboratory results reported in PMC8948257, “Limited solvation of an electron donating tryptophan stabilizes a photoinduced charge-separated state in plant (6–4) photolyase” (Scientific Reports, 2022).
Substitutions are numbered along the chain they refer to.

Assays:
Type in all cases: binding
Settings in all cases: 5 mM L-cysteine, 20 mM phosphate pH 7.5, 500 mM NaCl, 10% glycerol, anaerobic, >430 nm light, on ice; native bound cofactor
[1] = target: T1, Xl64 (Xenopus laevis (6-4) PL) (Xenopus laevis, UniProt Q9I910, W370F/S372H, form not given); assay: steady-state FAD photoreduction by UV-Vis
T1 construct: gene Xl64phr; pET28a(+), expressed in E. coli; only the W370F/S372H mutant made here
T1 sequence (Q9I910 1-526 W370F/S372H): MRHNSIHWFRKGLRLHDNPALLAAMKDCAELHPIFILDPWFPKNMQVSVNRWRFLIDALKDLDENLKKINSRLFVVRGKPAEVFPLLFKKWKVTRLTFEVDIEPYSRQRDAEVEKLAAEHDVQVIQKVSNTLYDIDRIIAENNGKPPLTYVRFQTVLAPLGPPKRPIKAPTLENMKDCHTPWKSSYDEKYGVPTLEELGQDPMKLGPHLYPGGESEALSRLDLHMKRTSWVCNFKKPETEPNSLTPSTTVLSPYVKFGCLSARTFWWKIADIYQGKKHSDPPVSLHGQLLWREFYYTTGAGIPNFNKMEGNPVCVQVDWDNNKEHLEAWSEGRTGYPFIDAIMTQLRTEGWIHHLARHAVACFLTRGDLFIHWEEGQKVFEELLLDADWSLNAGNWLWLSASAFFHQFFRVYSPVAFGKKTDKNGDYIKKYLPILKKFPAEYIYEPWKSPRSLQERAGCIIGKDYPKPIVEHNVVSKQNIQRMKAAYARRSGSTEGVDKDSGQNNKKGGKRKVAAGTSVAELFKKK

[2] = target: T2, At64 ((6-4) photolyase from Arabidopsis thaliana) (Arabidopsis thaliana, UniProt O48652, H382V); assay: steady-state FAD photoreduction by UV-Vis
T2 construct: gene UVR3; pET-28a(+) NdeI/XhoI, His-tagged, expressed in E. coli C41(DE3)/pLysS; TALON and heparin purification
T2 sequence (O48652 20-556 H382V): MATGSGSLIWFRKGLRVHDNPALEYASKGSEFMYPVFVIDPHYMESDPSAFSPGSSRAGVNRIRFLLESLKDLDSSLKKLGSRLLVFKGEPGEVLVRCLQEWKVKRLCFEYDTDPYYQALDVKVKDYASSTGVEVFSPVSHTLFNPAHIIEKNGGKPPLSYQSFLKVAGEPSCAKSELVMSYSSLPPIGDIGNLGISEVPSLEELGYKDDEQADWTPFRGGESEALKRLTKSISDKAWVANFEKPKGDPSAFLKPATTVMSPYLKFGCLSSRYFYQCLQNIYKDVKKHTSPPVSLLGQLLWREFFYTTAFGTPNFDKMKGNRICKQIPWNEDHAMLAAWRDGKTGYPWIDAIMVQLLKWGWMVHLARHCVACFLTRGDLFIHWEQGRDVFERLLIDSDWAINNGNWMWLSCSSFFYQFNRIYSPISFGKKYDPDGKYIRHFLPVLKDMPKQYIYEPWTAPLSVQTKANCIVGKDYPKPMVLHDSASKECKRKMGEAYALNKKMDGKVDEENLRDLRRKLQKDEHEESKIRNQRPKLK

[3] = target: T3, At64 ((6-4) photolyase from Arabidopsis thaliana) (Arabidopsis thaliana, UniProt O48652, H382S); assay: steady-state FAD photoreduction by UV-Vis; transient absorption
T3 construct: gene UVR3; pET-28a(+) NdeI/XhoI, His-tagged, expressed in E. coli C41(DE3)/pLysS; TALON and heparin purification
T3 sequence (O48652 20-556 H382S): T2 sequence (O48652 20-556 H382V) with V363S

[4] = target: T4, At64 ((6-4) photolyase from Arabidopsis thaliana) (Arabidopsis thaliana, UniProt O48652, H382N); assay: steady-state FAD photoreduction by UV-Vis
T4 construct: gene UVR3; pET-28a(+) NdeI/XhoI, His-tagged, expressed in E. coli C41(DE3)/pLysS; TALON and heparin purification
T4 sequence (O48652 20-556 H382N): T2 sequence (O48652 20-556 H382V) with V363N

[5] = target: T5, At64 ((6-4) photolyase from Arabidopsis thaliana) (Arabidopsis thaliana, UniProt O48652, H382D); assay: steady-state FAD photoreduction by UV-Vis
T5 construct: gene UVR3; pET-28a(+) NdeI/XhoI, His-tagged, expressed in E. coli C41(DE3)/pLysS; TALON and heparin purification
T5 sequence (O48652 20-556 H382D): T2 sequence (O48652 20-556 H382V) with V363D

[6] = target: T6, At64 ((6-4) photolyase from Arabidopsis thaliana) (Arabidopsis thaliana, UniProt O48652, H382Y); assay: steady-state FAD photoreduction by UV-Vis
T6 construct: gene UVR3; pET-28a(+) NdeI/XhoI, His-tagged, expressed in E. coli C41(DE3)/pLysS; TALON and heparin purification
T6 sequence (O48652 20-556 H382Y): T2 sequence (O48652 20-556 H382V) with V363Y

Cc1cc2nc3c(=O)[nH]c(=O)nc-3n(C[C@H](O)[C@H](O)[C@H](O)COP(=O)(O)OP(=O)(O)OC[C@H]3O[C@@H](n4cnc5c(N)ncnc54)[C@H](O)[C@@H]3O)c2cc1C [flavin adenine dinucleotide]
steady-state FAD photoreduction by UV-Vis [1]: the W370F/S372H double mutant of Xl64 (Xl64-W370F/S372H)
steady-state FAD photoreduction by UV-Vis [2]: we successfully purified the H382D, H382N, H382V and H382Y mutants of At64
steady-state FAD photoreduction by UV-Vis; transient absorption [3]: FAD photoreduction in At64-H382S occurred with a half-life
steady-state FAD photoreduction by UV-Vis [4]: we successfully purified the H382D, H382N, H382V and H382Y mutants of At64
steady-state FAD photoreduction by UV-Vis [5]: we successfully purified the H382D, H382N, H382V and H382Y mutants of At64
steady-state FAD photoreduction by UV-Vis [6]: we successfully purified the H382D, H382N, H382V and H382Y mutants of At64
